Patent US20170035742A1, “DURABLE TREATMENT WITH 4-AMINOPYRIDINE IN PATIENTS WITH DEMYELINATION” (Acorda Therapeutics, Inc., priority 2009, published 2017)

Legend:
[1] = Plasma protein binding; type: in vitro ADME; details: human
From the text: Measurable levels are present in the saliva.

[2] = Single- and repeated-dose toxicity studies; type: in vivo; details: after large single doses or repeated lower doses, all species studied
From the text: In single- and repeated-dose toxicity studies, the dosing regimen greatly affected the rate of side effects. […] These clinical signs were not unexpected and represent exaggerated pharmacology of 4-aminopyridine.

[3] = Adverse events in controlled clinical studies; type: in vivo, human
From the text: In controlled clinical studies involving the use of 4-aminopyridine, the most frequent adverse events by body system occurred in the nervous system, “body as a whole”, and digestive system.
While an increased incidence of such events appears to be moderately dose-related, the susceptibility of individuals is quite variable. As a result of disease pathology, there appears to be potential for more lowering of seizure threshold in people with MS than for people with spinal cord injury; this may result from interaction of the channel-blocking properties of the drug with MS brain pathology in certain individuals.

[4] = tested on: patients with multiple sclerosis; experiment: MS-F203EXT open-label extension study; details: over two years open-label
Method: This extension study (MS-F203EXT) monitored efficacy and safety during open-label treatment of patients from MS-F203. Design/methods: Patients were treated with 10 mg fampridine bid, and were assessed in the clinic at 2, 14, and 26 weeks and every 6 months thereafter. Eligibility criteria included: definite MS; age 18-70; Timed 25-Foot Walk (T25FW) times of 8-45 seconds at screening for MS-F203. Efficacy was analyzed by the proportion of Extension Timed Walk Responders (ETWRs) whose walking was faster during the majority of visits than their fastest off-treatment speed.
MS-F203EXT monitored efficacy and safety during open-label treatment of patients from MS-F203. Patients were treated with 10 mg fampridine bid, and were assessed in the clinic at 2, 14, and 26 weeks and every 6 months thereafter. Eligibility criteria included: definite MS; age 18-70; Timed 25-Foot Walk (T25FW) times of 8-45 seconds at screening for MS-F203. Efficacy was analyzed by the proportion of Extension Timed Walk Responders (ETWRs) whose walking was faster during the majority of visits than their fastest off-treatment speed. […] There are safety assessments, a timed 25 Foot Walk assessment, Clinician and Subject Global Impression at each visit. An EDSS assessment is performed every 2 years.
Timed walk response in the extension study was measured using the Timed 25-Foot Walk (T25W). […]

[5] = Rat i.v. and p.o. pharmacokinetics, 2 mg/kg (M 2001-03); details: AUC(0-∞) p.o. vs i.v.
[6] = Tissue distribution of 14C-labeled 4-aminopyridine 1 mg/kg p.o. in rats; details: one hour post-dose
Method: In a single-dose study, rats were administered ^14C-labeled 4-aminopyridine (1 mg/kg) p.o. Three animals per time point were sacrificed 1, 3, 8, and 24 hours post-dose. Blood was collected and tissues were excised for determination of radioactivity.

| Compound | unbound to plasma proteins [1] | clinical signs [2] | most common nervous system adverse events [3] | most frequently reported event in the digestive system category [3] | safety profile [4] | bioavailability ([5]; female rats) [%] | bioavailability ([5]; male rats) | dose accounted for in total [6] [%] | radioactivity in blood, percent of dose [6] [%] | radioactivity in kidney, percent of dose [6] [%] | radioactivity in liver, percent of dose [6] [%] |
| --- | --- | --- | --- | --- | --- | --- | --- | --- | --- | --- | --- |
| Nc1ccncc1 [4-aminopyridine] | 97-99% | tremors, convulsions, ataxia, dyspnea, dilated pupils, prostration, abnormal vocalization, increased respiration, excess salivation, gait abnormalities, and hyper- and hypo-excitability | Dizziness, insomnia, paresthesia, pain, headache and asthenia | nausea | No new safety issues emerged | ~55 | approximately 66.5% |  |  |  |  |
| ^14C-4-Aminopyridine |  |  |  |  |  |  |  | 58.3 | 0.7 | 1.6 | 2.6 |
